According to patent publication US20100173022A1, “COMPOSITION FOR THE TREATMENT OF DIABETES MELLITUS AND METABOLIC SYNDROME” (priority 2007, published 2010):

Legend:
[1] = tested on: streptozotocin induced type I diabetes rats; test: Streptozotocin induced type I diabetes model; format: in vivo, rat; conditions: insulin 2.5, single dose, at 2 hrs
Procedure: In another study streptozotocin was administered to the test animals, causing the destruction of the beta cells of pancreas. In rats a dose of STZ of 60 mg/kg ip causes stable hyperglycemia by day 7 post administration. Generally, this model mimics type I Diabetes Mellitus. Groups were treated for 15 days with ADM01, ADM01+insulin and insulin.
In the same study the effects of a single dose administration on fasting glucose levels was studied.

[2] = tested on: experimental diabetic rats (Streptozotocin-Nicotinamide model); test: 30-days study in Streptozotocin-Nicotinamide experimental diabetic rats; format: in vivo, rat; conditions: after 10, 20 and 30 days of treatment vs base line (0 day); P<0.05
Procedure: In another study the effect of ADM01 on blood glucose levels in experimental diabetic rats, using the Streptozotocin-Nicotinamide model, was investigated. After confirming the stabilization of diabetes mellitus in the experimental animals a single dose study was carried out in which the effect of a single dose administration of different dosages of ADM01 on blood glucose levels was investigated against vehicle control.
After the single dose study, a 30-days study was carried out in which the effect of daily administration of ADM01 on blood glucose levels was investigated. The effect of doses of 200, 400 and 800 mg/kg body weight respectively were investigated.

[3] = tested on: rat islets; test: in vitro insulinotropic test using rat islets; format: cell-based; conditions: dose 162(1 mM) micrograms; mean ± SEM
Source text: In an in vitro test using rat islets, the insulinotropic ability of ADM01 was investigated against standard (tolbutamide) and placebo control.

Compound | fall of FPG-levels [1] [%] | serum blood glucose levels [2] | serum insulin levels [2] | Amount of insulin during stimulated insulin release (glucose, 16 mM) [3] [picomoles/L] | Amount of insulin release at basal glucose levels (2 mM) [3] [picomoles/L]
insulin | 23.3 |  |  |  | 
CCCCNC(=O)NS(=O)(=O)c1ccc(C)cc1 [Tolbutamide] |  | significantly decreased | significantly increased | 239.48 ± 11.43 | 107.08 ± 15.35
